Legend:
[1] = Stability tests of stabilized Idarubicin HCl, 1% w/v aqueous solution with NH4OAc or NH4OAc + AcOH; type: physicochemical
Protocol: Starting product was idarubicin hydrochloride, 1% w/v aqueous solution, the analysis of which is shown in the data reported at t=0. 3% mol of NH4OAc with respect to idarubicin hydrochloride was added to the solution at t=0 and the solution was incubated at 4° C. for the indicated time.
Starting product was idarubicin hydrochloride, 1% w/v aqueous solution, the analysis of which is shown in the data reported at t=0. 3% mol of NH4OAc with respect to idarubicin hydrochloride was added to the solution at t=0 and the solution was incubated at 20° C. for the indicated time.
(§1) Starting product was idarubicin hydrochloride, 1% w/v aqueous solution, the analysis of which is shown in the data reported at t=0. 1% mol of NH4OAc with respect to idarubicin hydrochloride was added to the solution at t=0 and the solution was incubated at 4° C. for the indicated time.
(§2) Starting product was idarubicin hydrochloride, 1% w/v aqueous solution, the analysis of which is shown in the data reported at t=0. 1% mol of NH4OAc with respect to idarubicin hydrochloride was added to the solution at t=0 and the solution was incubated at 20° C. for the indicated time.
as §1, with “t=0. 0.5%” for “t=0. 1%”, “NH4OAc and 0.5% mol of AcOH” for “NH4OAc”, “hydrochloride were” for “hydrochloride was”
as §2, with “t=0. 0.5%” for “t=0. 1%”, “NH4OAc and 0.5% mol of AcOH” for “NH4OAc”, “hydrochloride were” for “hydrochloride was”, “indicated time as shown in table 30.” for “indicated time.”
as §1, with “t=0. 1.5%” for “t=0. 1%”, “NH4OAc and 1.5% mol of AcOH” for “NH4OAc”, “hydrochloride were” for “hydrochloride was”
as §2, with “t=0. 1.5%” for “t=0. 1%”, “NH4OAc and 1.5% mol of AcOH” for “NH4OAc”, “hydrochloride were” for “hydrochloride was”

[2] = Preparation of stable lyophilized anthracycline glycoside hydrochlorides: aglycone and dimer in the lyophilized product; type: physicochemical; conditions: frozen and lyophilized
Protocol: (§3) Idarubicin hydrochloride (500 mg) was dissolved in water (50 ml) and acetic acid and ammonium acetate (both 1.5% molar amount with respect to the molar amount of idarubicin hydrochloride) were added. The solution was frozen and lyophilized.
as §3, with “Charcoal was then added (100 g) and the solution was stirred for two hours. After that, the suspension was filtered through 0.4 micron membrane and then the” for “The”
Doxorubicin hydrochloride (500 mg) was dissolved in water (20 ml) and the pH corrected to 3.5 with acetic acid at room temperature. The solution was then warmed to 60° C. for 2 hours and then ammonium acetate (1.5% molar amount with respect to the molar amount of doxorubicin hydrochloride) was added. Then the solution was quickly frozen and lyophilized.
(§4) Epirubicin hydrochloride (1550 mg) was dissolved in water (100 ml) and the pH corrected to 3.2-3.8 with hydrochloric acid at room temperature. The solution was then warmed to 60° C.-65° C. for 1 hours and then the solution was cooled to 50-60° C. At the same time, the pH was corrected to 4.5-5.0 with sodium hydroxide. Then the solution was quickly frozen and lyophilized.
Idarubicin hydrochloride (5.0 g) was dissolved in water (500 ml). Then 58 microlitres of AMBERLITE® IRA-67 (1.6M) acetate (meaning 1.0% molar amount with respect to the molar amount of idarubicin hydrochloride) and 4.5 mg of acetic acid (meaning 0.8% molar amount with respect to the molar amount of idarubicin hydrochloride) were added. The suspension was slurried for two hours, then filtered, frozen and lyophilized.
Doxorubicin hydrochloride (5.0 g) was dissolved in water (200 ml) and the pH corrected to 4.6-4.8 with IN hydrochloric acid at room temperature. Then 80 microlitres of AMBERLITE® IRA-67 (1.6M) acetate (meaning 1.5% molar amount with respect to the molar amount of doxorubicin hydrochloride) was added. The solution was then filtered, frozen and lyophilized.
as §4, with “was” for “was then”, “hour” for “hours”, “AMBERLITE® IRA-67 free base.” for “sodium hydroxide.”, “filtered, frozen,” for “frozen”

[3] = cited from earlier work
[4] = NH4OAc 0.5% mol + AcOH 0.5% mol, pH 5.08, 4° C., 25 hr
[5] = NH4OAc 0.5% mol + AcOH 0.5% mol, pH 5.08, 4° C., 95 hr
[6] = NH4OAc 0.5% mol + AcOH 0.5% mol, pH 5.08, 20° C., 19 hr
[7] = NH4OAc 0.5% mol + AcOH 0.5% mol, pH 5.08, 20° C., 90 hr
[8] = NH4OAc 1% mol, pH 5.92, 4° C., 24 hr
[9] = NH4OAc 1% mol, pH 5.92, 20° C., 18 hr
[10] = NH4OAc 1% mol, pH 5.92, 20° C., 313 hr
[11] = NH4OAc 1.5% mol + AcOH 1.5% mol, pH 4.94, 4° C., 314 hr
[12] = NH4OAc 1.5% mol + AcOH 1.5% mol, pH 4.94, 20° C., 21 hr
[13] = NH4OAc 1.5% mol + AcOH 1.5% mol, pH 4.94, 20° C., 68 hr
[14] = NH4OAc 1.5% mol + AcOH 1.5% mol, pH 4.94, 20° C., 139 hr
[15] = NH4OAc 1.5% mol + AcOH 1.5% mol, pH 4.94, 20° C., 315 hr
[16] = NH4OAc 3% mol, pH 5.94, 4° C., 30 hr
[17] = NH4OAc 3% mol, pH 5.94, 4° C., 131 hr
[18] = NH4OAc 3% mol, pH 5.94, 20° C., 26 hr
[19] = NH4OAc 3% mol, pH 5.94, 20° C., 130 hr

`CC(=O)[C@]1(O)Cc2c(O)c3c(c(O)c2[C@@H](O[C@H]2C[C@@H](N)[C@H](O)C(C)O2)C1)C(=O)c1ccccc1C3=O.Cl` (stereo partly shown) [Idarubicin HCl, Idarubicin hydrochloride] gave an aglycone [1, 4] of 0.59%, a bis-anhydro [1, 4] of 0.04% and an aglycone [1, 5] of 0.59%. It also gave a bis-anhydro [1, 5] of 0.05%, an aglycone ([1]; NH4OAc 0.5% mol + AcOH 0.5% mol, pH 5.08, 4° C., t = 0) of 0.59% and an aglycone [1, 6] of 0.59%. It also gave a bis-anhydro [1, 6] of 0.07%, an aglycone [1, 7] of 0.59% and a bis-anhydro [1, 7] of 0.18%. For the same molecule, the aglycone ([1]; NH4OAc 0.5% mol + AcOH 0.5% mol, pH 5.08, 20° C., t = 0) was 0.59%, the “% aglycone” value [1, 8] was 0.59% and the “% bis-anhydro” value [1, 8] was 0.05%. For the same molecule, the “% aglycone” value ([1]; NH4OAc 1% mol, pH 5.92, 4° C., t = 0) was 0.59%, the “% aglycone” value [1, 9] was 0.59% and the “% bis-anhydro” value [1, 9] was 0.20%. For the same molecule, the “% aglycone” value [1, 10] was 0.60%, the “% bis-anhydro” value [1, 10] was 4.46% and the “% aglycone” value ([1]; NH4OAc 1% mol, pH 5.92, 20° C., t = 0) was 0.59%. For the same molecule, the aglycone ([1]; NH4OAc 1.5% mol + AcOH 1.5% mol, pH 4.94, 4° C., 26 hr) was 0.59%, the aglycone ([1]; NH4OAc 1.5% mol + AcOH 1.5% mol, pH 4.94, 4° C., 97 hr) was 0.59% and the aglycone [1, 11] was 0.59%. It also gave a bis-anhydro [1, 11] of 0.06%, an aglycone ([1]; NH4OAc 1.5% mol + AcOH 1.5% mol, pH 4.94, 4° C., t = 0) of 0.59% and an aglycone [1, 12] of 0.59%. The bis-anhydro [1, 12] was 0.06%, the aglycone [1, 13] was 0.59% and the bis-anhydro [1, 13] was 0.16%. The aglycone [1, 14] was 0.59%, the bis-anhydro [1, 14] was 0.75% and the aglycone [1, 15] was 0.6%. For the same molecule, the bis-anhydro [1, 15] was 6.21%, the aglycone ([1]; NH4OAc 1.5% mol + AcOH 1.5% mol, pH 4.94, 20° C., t = 0) was 0.59% and the “% aglycone” value [1, 16] was 0.59%. For the same molecule, the “% bis-anhydro” value [1, 16] was 0.09%, the “% aglycone” value [1, 17] was 0.59% and the “% bis-anhydro” value [1, 17] was 0.25%. The “% aglycone” value ([1]; NH4OAc 3% mol, pH 5.94, 4° C., t = 0) was 0.59%, the “% aglycone” value [1, 18] was 0.59% and the “% bis-anhydro” value [1, 18] was 0.50%. For the same molecule, the “% aglycone” value [1, 19] was 0.59%, the “% bis-anhydro” value [1, 19] was 1.39% and the “% aglycone” value ([1]; NH4OAc 3% mol, pH 5.94, 20° C., t = 0) was 0.59%. For the same molecule, the “aglycone contained in lyophilized product” value (“aglycone contained” below) ([2]; Example 38: acetic acid and ammonium acetate, both 1.5% molar) was 0.12%, the “aglycone contained” value ([2]; Example 39: acetic acid and ammonium acetate, both 1.5% molar, charcoal, filtered) was 0.02% and the “aglycone contained” value ([2]; Example 42: AMBERLITE IRA-67 acetate 1.0% molar and acetic acid 0.8% molar, slurried two hours, filtered) was 0.09%. For the same molecule, the “pH in a 0.5% w/v solution in water” value [3] was 5.0-6.5.

Source: patent US20070004653A1, “Stable lyophilized anthracycline glycosides” (priority 2005, published 2007)
